Patent US20040047922A1, “Preparation with vascular protective and anti-oxidative effect and use thereof” (priority 2000, published 2004)

Legend:
[1] = tested on: tryptophane residues in apo B-100 of LDL; assay: Cu(II)-induced loss of tryptophane fluorescence in LDL; type: biochemical; details: FIG. 5
Source text: Oxidation of HDL or LDL with Cu(II) goes along with a reduction of the tryptophane residues (Reyftmann et al., 1990, Biochim. Biophys. Acta 1042, pp. 159-167), which can be observed by measuring fluorescence. After adding Cu(II) to an LDL solution, fluorescence initially drops within a few seconds due to quenching effects caused by copper. […] The time before the slower phase changes into the faster phase can be defined as the lag phase, just like with diene conjugation. (Giessauf et.al., 1995, Biochim. Biophys. Acta 1256, pp. 221-232). The faster decline in fluorescence starts about at the same time as the propagation phase of diene conjugation and is most likely based on a reaction of lipid peroxidation products with tryptophane residues. We used this test system, too, to find out whether the accumulation of lemon oil or γ-terpinene in LDL influences the Cu(II)-induced loss of tryptophane fluorescence.

LDL = assay: Cu(II)-induced formation of conjugated dienes in LDL isolated from plasma pre-incubated with the test substance (lag phase); type: biochemical; details: FIG. 2
Protocol: In-vitro LDL oxidation is a common model for testing various substances for their antioxidant properties because they accumulate in the LDL in vitro due to pre-incubation of the plasma with (primarily lipophilic) test substances (McLean und Hagaman, 1989, Biochemistry 28(1); pp. 321-327, Esterbauer et al, 1991b, Am. J. Clin. Nutr. 53, pp. 315S-321S). After accumulation, the influence of these substances on the oxidability of LDL can be studied.
Continuous measurement of the formation of conjugated dienes in LDL is an accepted method of comparing oxidizability of the lipid portion of various LDL samples (Esterbauer et al. 1989, Free Rad. Res. Comms. 6(1), pp. 67-75; Parthasarathy et al. 1998, Free Rad. Res. 28, pp. 583-591). […] The study was to find out whether accumulation of lemon oil or γ-terpinene in LDL can protect the LDL from Cu(II)-induced oxidation.
In another test, blood plasma was incubated with 0.5, 0.25, 0.1 and 0.01% γ-terpinene and the LDL isolated from it was tested for resistance against cooper-induced oxidation.

Structure (SMILES): CC1=CCC(C(C)C)=CC1 [γ-terpinene]
- oxidation of tryptophane residues in LDL ([1]; 0.5% of γ-terpinene in the plasma): almost completely prevents
- early protein oxidation (loss of tryptophane fluorescence) ([1]; LDL enriched with γ-terpinene): slows down
- lag phase of conjugated diene formation (LDL; 0.01% γ-terpinene in the plasma): clearly extended
- extension of the lag phase of conjugated diene formation (LDL; 0.1% γ-terpinene in the plasma): about 250 minutes
- time without reaching the propagation phase (LDL; higher concentrations in the plasma (0.25 and 0.5% γ-terpinene)): > 500 min
- lag phase of conjugated diene formation (LDL; plasma incubated with 0.5, 0.25, 0.1 and 0.01% γ-terpinene, copper-induced oxidation): expands depending on concentration
